Experimental data as given in ChEMBL document CHEMBL1134924, “An efficient and practical method for solid-phase synthesis of tripeptide-bearing glycopeptide antibiotics: combinatorial parallel synthesis of carboxamide derivatives of chloroorienticin B” (2002).
In brackets after ≈: the same amount, converted by molar mass.

Key:
Format in all cases: functional
Enterococcus faecium = experiment: In vitro antibacterial activity against VRE (Vancomycin Resistant Enterococcus faecium SR-7917)
Enterococcus faecalis = experiment: In vitro antibacterial activity against VRE (Vancomycin Resistant Enterococcus faecalis SR-7914)
Staphylococcus aureus = experiment: In vitro antibacterial activity against MRSA (Methicillin Resistant Staphylococcus aureus SR-3637)

SMILES | MIC (Enterococcus faecium) [µg/mL] | MIC (Enterococcus faecalis) [µg/mL] | MIC (Staphylococcus aureus) [µg/mL]
CN[C@H](CC(C)C)C(=O)N[C@H]1C(=O)N[C@@H](CC(N)=O)C(=O)N[C@H]2C(=O)N[C@H]3C(=O)NC(C(=O)N[C@@H](C(=O)NC(=O)[C@H](Cc4ccc(O)cc4)NC(=O)[C@H](Cc4c[nH]c5ccccc45)NC(=O)[C@@H](N)CCC(=O)O)c4cc(O)cc(O)c4-c4cc3ccc4O)[C@H](O[C@H]3C[C@](C)(N)[C@@H](O)[C@H](C)O3)c3ccc(c(Cl)c3)Oc3cc2cc(c3O[C@@H]2O[C@H](CO)[C@@H](O)[C@H](O)[C@H]2O)Oc2ccc(cc2Cl)[C@H]1O | > 128 | > 128 | 8 (≈ 4.15 µM)
CN[C@H](CC(C)C)C(=O)N[C@H]1C(=O)N[C@@H](CC(N)=O)C(=O)N[C@H]2C(=O)N[C@H]3C(=O)N[C@H](C(=O)N[C@H](C(=O)NC(=O)[C@H](Cc4c[nH]cn4)NC(=O)[C@@H]4CCCN4C(=O)[C@@H](N)Cc4c[nH]c5ccccc45)c4cc(O)cc(O)c4-c4cc3ccc4O)[C@H](O[C@H]3C[C@](C)(N)[C@@H](O)[C@H](C)O3)c3ccc(c(Cl)c3)Oc3cc2cc(c3OC2O[C@H](CO)[C@@H](O)[C@H](O)[C@H]2O)Oc2ccc(cc2Cl)[C@H]1O (some centres not stated) | 16 (≈ 8.56 µM) | 64 (≈ 34.2 µM) | 0.5 (≈ 0.268 µM)
CN[C@H](CC(C)C)C(=O)N[C@H]1C(=O)N[C@@H](CC(N)=O)C(=O)N[C@H]2C(=O)N[C@H]3C(=O)NC(C(=O)N[C@@H](C(=O)O)c4cc(O)cc(O)c4-c4cc3ccc4O)[C@H](O[C@H]3C[C@](C)(N)[C@@H](O)[C@H](C)O3)c3ccc(c(Cl)c3)Oc3cc2cc(c3O[C@@H]2O[C@H](CO)[C@@H](O)[C@H](O)[C@H]2O)Oc2ccc(cc2Cl)[C@H]1O | > 128 | > 128 | 0.5 (≈ 0.345 µM)
CN[C@H](CC(C)C)C(=O)N[C@H]1C(=O)N[C@@H](CC(N)=O)C(=O)N[C@H]2C(=O)N[C@H]3C(=O)NC(C(=O)N[C@@H](C(=O)NC(=O)[C@H](Cc4c[nH]cn4)NC(=O)[C@H](Cc4c[nH]c5ccccc45)NC(=O)[C@@H](N)Cc4ccc(O)cc4)c4cc(O)cc(O)c4-c4cc3ccc4O)[C@H](O[C@H]3C[C@](C)(N)[C@@H](O)[C@H](C)O3)c3ccc(c(Cl)c3)Oc3cc2cc(c3O[C@@H]2O[C@H](CO)[C@@H](O)[C@H](O)[C@H]2O)Oc2ccc(cc2Cl)[C@H]1O | 8 (≈ 4.13 µM) | 16 (≈ 8.27 µM) | 0.5 (≈ 0.258 µM)
CN[C@H](CC(C)C)C(=O)N[C@H]1C(=O)N[C@@H](CC(N)=O)C(=O)N[C@H]2C(=O)N[C@H]3C(=O)NC(C(=O)N[C@@H](C(=O)NC(=O)[C@H](CCCCN)NC(=O)[C@H](Cc4ccc(O)cc4)NC(=O)[C@@H](N)CC(C)C)c4cc(O)cc(O)c4-c4cc3ccc4O)[C@H](O[C@H]3C[C@](C)(N)[C@@H](O)[C@H](C)O3)c3ccc(c(Cl)c3)Oc3cc2cc(c3O[C@@H]2O[C@H](CO)[C@@H](O)[C@H](O)[C@H]2O)Oc2ccc(cc2Cl)[C@H]1O | 32 (≈ 17.3 µM) | 128 (≈ 69.1 µM) | 0.5 (≈ 0.27 µM)
CN[C@H](CC(C)C)C(=O)N[C@H]1C(=O)N[C@@H](CC(N)=O)C(=O)N[C@H]2C(=O)N[C@H]3C(=O)NC(C(=O)N[C@@H](C(=O)NC(=O)[C@H](CCCCN)NC(=O)CNC(=O)[C@@H](N)Cc4ccc(O)cc4)c4cc(O)cc(O)c4-c4cc3ccc4O)[C@H](O[C@H]3C[C@](C)(N)[C@@H](O)[C@H](C)O3)c3ccc(c(Cl)c3)Oc3cc2cc(c3O[C@@H]2O[C@H](CO)[C@@H](O)[C@H](O)[C@H]2O)Oc2ccc(cc2Cl)[C@H]1O | 64 (≈ 35.6 µM) | 128 (≈ 71.2 µM) | 0.5 (≈ 0.278 µM)
CN[C@H](CC(C)C)C(=O)N[C@H]1C(=O)N[C@@H](CC(N)=O)C(=O)N[C@H]2C(=O)N[C@H]3C(=O)NC(C(=O)N[C@@H](C(=O)NC(=O)CNC(=O)[C@H](Cc4c[nH]c5ccccc45)NC(=O)[C@@H](N)CCCCN)c4cc(O)cc(O)c4-c4cc3ccc4O)[C@H](O[C@H]3C[C@](C)(N)[C@@H](O)[C@H](C)O3)c3ccc(c(Cl)c3)Oc3cc2cc(c3O[C@@H]2O[C@H](CO)[C@@H](O)[C@H](O)[C@H]2O)Oc2ccc(cc2Cl)[C@H]1O | 32 (≈ 17.6 µM) | 64 (≈ 35.2 µM) | 0.25 (≈ 0.137 µM)
CN[C@H](CC(C)C)C(=O)N[C@H]1C(=O)N[C@@H](CC(N)=O)C(=O)N[C@H]2C(=O)N[C@H]3C(=O)NC(C(=O)N[C@@H](C(=O)NC(=O)[C@H](CO)NC(=O)[C@H](Cc4c[nH]c5ccccc45)NC(=O)[C@@H](N)Cc4ccc(O)cc4)c4cc(O)cc(O)c4-c4cc3ccc4O)[C@H](OC3C[C@](C)(N)[C@@H](O)[C@H](C)O3)c3ccc(c(Cl)c3)Oc3cc2cc(c3O[C@@H]2O[C@H](CO)[C@@H](O)[C@H](O)[C@H]2O)Oc2ccc(cc2Cl)[C@H]1O (some centres not stated) | 16 (≈ 8.49 µM) | 32 (≈ 17 µM) | 0.5 (≈ 0.265 µM)
CN[C@H](CC(C)C)C(=O)N[C@H]1C(=O)N[C@@H](CC(N)=O)C(=O)N[C@H]2C(=O)N[C@H]3C(=O)NC(C(=O)N[C@@H](C(=O)NC(=O)[C@H](CCC(=O)O)NC(=O)CNC(=O)[C@@H](N)Cc4ccc(O)cc4)c4cc(O)cc(O)c4-c4cc3ccc4O)[C@H](O[C@H]3C[C@](C)(N)[C@@H](O)[C@H](C)O3)c3ccc(c(Cl)c3)Oc3cc2cc(c3O[C@@H]2O[C@H](CO)[C@@H](O)[C@H](O)[C@H]2O)Oc2ccc(cc2Cl)[C@H]1O | > 128 | > 128 | 4 (≈ 2.23 µM)
CN[C@H](CC(C)C)C(=O)N[C@H]1C(=O)N[C@@H](CC(N)=O)C(=O)N[C@H]2C(=O)N[C@H]3C(=O)NC(C(=O)N[C@@H](C(=O)NC(=O)[C@H](CCCCN)NC(=O)[C@H](Cc4c[nH]c5ccccc45)NC(=O)[C@@H](N)CC(C)C)c4cc(O)cc(O)c4-c4cc3ccc4O)[C@H](O[C@H]3C[C@](C)(N)[C@@H](O)[C@H](C)O3)c3ccc(c(Cl)c3)Oc3cc2cc(c3O[C@@H]2O[C@H](CO)[C@@H](O)[C@H](O)[C@H]2O)Oc2ccc(cc2Cl)[C@H]1O | 16 (≈ 8.53 µM) | 32 (≈ 17.1 µM) | 0.5 (≈ 0.267 µM)
CN[C@H](CC(C)C)C(=O)N[C@H]1C(=O)N[C@@H](CC(N)=O)C(=O)N[C@H]2C(=O)N[C@H]3C(=O)NC(C(=O)N[C@@H](C(=O)NC(=O)[C@H](Cc4ccc(O)cc4)NC(=O)[C@H](Cc4c[nH]c5ccccc45)NC(=O)[C@@H](N)CC(C)C)c4cc(O)cc(O)c4-c4cc3ccc4O)[C@H](O[C@H]3C[C@](C)(N)[C@@H](O)[C@H](C)O3)c3ccc(c(Cl)c3)Oc3cc2cc(c3O[C@@H]2O[C@H](CO)[C@@H](O)[C@H](O)[C@H]2O)Oc2ccc(cc2Cl)[C@H]1O | 8 (≈ 4.19 µM) | 16 (≈ 8.37 µM) | 0.5 (≈ 0.262 µM)
CN[C@H](CC(C)C)C(=O)N[C@H]1C(=O)N[C@@H](CC(N)=O)C(=O)N[C@H]2C(=O)N[C@H]3C(=O)NC(C(=O)N[C@@H](C(=O)NC(=O)[C@H](Cc4ccc(O)cc4)NC(=O)[C@H](Cc4c[nH]cn4)NC(=O)[C@@H](N)CCCCN)c4cc(O)cc(O)c4-c4cc3ccc4O)[C@H](O[C@H]3C[C@](C)(N)[C@@H](O)[C@H](C)O3)c3ccc(c(Cl)c3)Oc3cc2cc(c3O[C@@H]2O[C@H](CO)[C@@H](O)[C@H](O)[C@H]2O)Oc2ccc(cc2Cl)[C@H]1O | 64 (≈ 34.1 µM) | 128 (≈ 68.2 µM) | 1 (≈ 0.533 µM)
CN[C@H](CC(C)C)C(=O)N[C@H]1C(=O)N[C@@H](CC(N)=O)C(=O)N[C@H]2C(=O)N[C@H]3C(=O)NC(C(=O)N[C@@H](C(=O)NC(=O)CNC(=O)[C@H](Cc4c[nH]cn4)NC(=O)[C@@H](N)Cc4c[nH]c5ccccc45)c4cc(O)cc(O)c4-c4cc3ccc4O)[C@H](O[C@H]3C[C@](C)(N)[C@@H](O)[C@H](C)O3)c3ccc(c(Cl)c3)Oc3cc2cc(c3O[C@@H]2O[C@H](CO)[C@@H](O)[C@H](O)[C@H]2O)Oc2ccc(cc2Cl)[C@H]1O | 16 (≈ 8.75 µM) | 32 (≈ 17.5 µM) | 0.25 (≈ 0.137 µM)
CN[C@H](CC(C)C)C(=O)N[C@H]1C(=O)N[C@@H](CC(N)=O)C(=O)N[C@H]2C(=O)N[C@H]3C(=O)NC(C(=O)N[C@@H](C(=O)NC(=O)[C@H](Cc4c[nH]cn4)NC(=O)[C@H](CCCCN)NC(=O)[C@@H](N)Cc4c[nH]c5ccccc45)c4cc(O)cc(O)c4-c4cc3ccc4O)[C@H](O[C@H]3C[C@](C)(N)[C@@H](O)[C@H](C)O3)c3ccc(c(Cl)c3)Oc3cc2cc(c3O[C@@H]2O[C@H](CO)[C@@H](O)[C@H](O)[C@H]2O)Oc2ccc(cc2Cl)[C@H]1O | 8 (≈ 4.21 µM) | 64 (≈ 33.7 µM) | < 0.125
